Laboratory results taken from ChEMBL document CHEMBL5728314, “Chiral N-acyl-5,6,7(8-substituted)-tetrahydro-[1,2,4]triazolo[4,3-a]pyrazines as selective NK-3 receptor antagonists, pharmaceutical composition, methods for use in NK-3 receptor mediated disorders and chiral synthesis thereof” (2021).

Biological target: T1, Neuromedin-K receptor (Homo sapiens, UniProt P29371)
T1 sequence (P29371 whole entry): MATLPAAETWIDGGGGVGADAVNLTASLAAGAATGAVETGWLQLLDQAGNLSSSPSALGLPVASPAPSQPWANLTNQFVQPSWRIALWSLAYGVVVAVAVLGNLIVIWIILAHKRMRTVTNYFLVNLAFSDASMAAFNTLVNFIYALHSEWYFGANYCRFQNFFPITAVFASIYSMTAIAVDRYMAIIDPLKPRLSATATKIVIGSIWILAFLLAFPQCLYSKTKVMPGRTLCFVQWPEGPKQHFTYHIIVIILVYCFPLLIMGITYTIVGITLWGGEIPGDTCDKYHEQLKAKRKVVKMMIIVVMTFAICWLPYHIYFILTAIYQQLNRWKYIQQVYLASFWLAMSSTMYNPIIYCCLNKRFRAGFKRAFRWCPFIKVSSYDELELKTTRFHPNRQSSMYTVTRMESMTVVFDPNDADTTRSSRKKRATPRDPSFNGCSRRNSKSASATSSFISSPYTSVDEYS
Experiment: Binding Competition Assay: NK3: The ability of compounds of the invention to inhibit the binding of the NK-3 receptor selective antagonist 3H-SB222200 was assessed by an in vitro radioligand binding assay. Membranes were prepared from Chinese hamster ovary recombinant cells stably expressing the human NK3 receptor. The membranes were incubated with 5 nM 3H-SB222200 (ARC) in a HEPES 25 mM/NaCl 0.1M/CaCl2 1 mM/MgCl2 5 Mm/BSA 0.5%/Saponin 10 μg/ml buffer at pH 7.4 and various concentrations of compounds of the invention. The amount of 3H-SB222200 bound to the receptor was determined after filtration by the quantification of membrane associated radioactivity using the TopCount-NXT reader (Packard).

- Ki: 51 nM
SMILES: Cc1coc(-c2nnc3n2CCN[C@@H]3C)n1
